Experimental data from US7659277B2, “Ubiquitin ligase inhibitors and methods related thereto” (Proteologies, Ltd., priority 2003, dated 2010).
Read-outs that look alike come from different tables or passages of the source.

Assays:
HIV-1 = assay: HIV maturation (budding) in virus-like particle assay, HIV-1 p24 antigen ELISA; format: cell-based; details: Human immunodeficiency virus 1, read-out: Budding (3 μM)
Text: Compounds were further assessed for effects on maturation of HIV particles in a virus-like particle assay.

POSH = molecular target: T1, POSH (Homo sapiens, UniProt Q7Z6J0); assay: Selectivity (% A in 1 μM), ubiquitin ligase activity of POSH; format: biochemical; details: read-out: Selectivity (% A* in 1 μM) POSH
T1 construct: GST-POSH lot NB81/p.118 3.6 mg/ml; fused on or other part: GST tag, used for detection with anti-GST XL665
T1 sequence (Q7Z6J0 1-269 limits assumed): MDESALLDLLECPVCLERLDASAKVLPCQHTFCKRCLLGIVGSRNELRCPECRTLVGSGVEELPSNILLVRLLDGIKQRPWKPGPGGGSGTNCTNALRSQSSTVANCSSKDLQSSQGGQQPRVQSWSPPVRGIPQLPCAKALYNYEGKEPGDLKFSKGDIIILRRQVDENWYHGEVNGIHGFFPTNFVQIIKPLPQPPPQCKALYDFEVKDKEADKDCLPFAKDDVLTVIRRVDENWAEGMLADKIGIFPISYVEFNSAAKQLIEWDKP
Procedure: Experimental Protocols: 1. HTS Screening Assay Procedure • Microplates 10109D to 10114D compounds at 1 mM. • (Controls in column 1). • All compounds were perchase from ChemBridge corporation: ChemBridge corporation 16981 Via Tazon, Suite G San Diego, Calif. 92127 a. Microplates Labeling • Put labels to 6 PS U-bottom clear microplate. • Put labels to 18 black microplates (triplicats). b. Microplates Preparation • Put 100 μl GST-POSH at 33 nM in wells of the clear PS U-bottom microplates (exept wells A1-D1). • Negative control: place 100 μl dH2O in wells A1-D1. • (Positive control: place 100 μl GST-POSH at 33 nM in wells E1-H1). • Put 8 μl enzymes solution ×4 to black microplates (column 1 to 11). c. Incubation of E3 with Compounds • Transfer 5 μl of compounds (at 1 mM) to the microplates containing 100 μl GST-POSH. • Add 5 μl of DMSO to controls column 1. • Incubation 30 minutes at RT. d. […] 2. […] Microplates Labeling • Put labels to 4 clear PP clear microplate (18.2 μM, 9.1 uM, 1.82 uM, 910 nM,). • Put labels to 5 clear PS U-bottom clear microplate 4.44 μM, 909, 444, 91 and 44 nM) • Put labels to 15 black microplates (triplicates). f. Original Microplate Dilutions • Put DMSO 40 μl to (18.2 μM, 1.82 uM plates) and 20 ul to (9.1 uM, 910 nM plates. • Mix by pipetation the original microplate (3× up and down 45 μl). • Transfer 10 μl of compounds from the original microplate (at 91 μM) to the next microplate (=18.2 μM) on splitting apparatus. • Mix by pipetation the 18.2 uM microplate (3× up and down 45 μl). • Transfer 20 μl of compounds from the 18.2 uM microplate to the next microplate (=9.1 μM) on splitting apparatus. • Mix by pipetation the 9.1 uM microplate (3× up and down 45 μl). • Transfer 10 μl of compounds from the 9.1 uM microplate to the next microplate (=1.82 μM) on splitting apparatus. • Mix by pipetation the 1.82 uM microplate (3× up and down 45 μl). • Transfer 20 μl of compounds from the 1.82 uM microplate to the next microplate (=910 nM) on splitting apparatus • Mix by pipetation. g. Microplates Preparation • Put 123 μl GST-POSH at 33 nM in wells of the 5 clear PS U-bottom clear microplates. • Positive control: place 123 μl GST-POSH at 33 nM in well A12-h12 13 μl DMSO. • Negative control: place 123 μl dH2O in well B1 and 13 μl DMSO. • Put 8 μl enzymes solution ×4 to 15 black microplates. • Controls: put 8 μl enzymes solution ×4 to wells A1 to F1. h. Incubation of POSH with Compounds • Take 7 μl of compounds at original plate (91 μM) and put into the 4.44 μM labeled microplate containing 123 μl GST-POSH, on splitting apparatus. • Mix by pipetation (3× up and down 115 μl), note time. • Take 7 μl of compounds at 18.2 μM and put into the 910 nM labeled microplate containing 123 μl GST-POSH, on splitting apparatus. • Mix by pipetation (3× up and down 115 μl), note time. • Take 7 μl of compounds at 9.1 μM and put into the 444 nM labeled microplate containing 123 μl GST-POSH, on splitting apparatus. • Mix by pipetation (3× up and down 115 μl), note time. • Take 7 μl of compounds at […] and put into the 91 nM labeled microplate containing 123 μl GST-POSH, on splitting apparatus. • Mix by pipetation (3× up and down 115 μl), note time. • Take 7 μl of compounds at 91.0 nM and put into the 44 nM labeled microplate containing 123 μl GST-POSH, on splitting apparatus. • Mix by pipetation (3× up and down 115 μl), note time. • Incubation 30 minutes at RT. i.

c-cbl = c-cbl (Homo sapiens, UniProt P22681); assay: Selectivity (% A in 1 μM), ubiquitin ligase activity of c-cbl; format: biochemical; details: % activity at 1 μM compound; control is related to 100% activity; HTS protocol
E2 protein = format: biochemical; details: % activity at 1 μM compound; control is related to 100% activity; HTS protocol
[1] = % activity at 1 μM compound, control is related to 100% activity, HTS protocol

Row | Compound | activity at 3 µM (HIV-1) [%] | remaining activity at 1 µM (POSH) [%] | remaining activity at 1 µM (c-cbl) [%] | Selectivity (% A* in 1 μM) E2 (E2 protein) [%] | remaining activity at 1 µM (POSH; [1]) [%]
1 | O=[N+]([O-])c1ccc(CN2CCN(c3cccc(Cl)c3)CC2)o1 [Compound 80] | 55 | 50 |  |  | 
2 | CN1C(=O)/C(=C\c2ccc(-c3cccc([N+](=O)[O-])c3)o2)SC1=S [Compound 115] | 48 | 8 |  |  | 
3 | N=C1NC(=O)/C(=C\c2ccc(-c3ccc(I)cc3)o2)S1 [Compound 29] | 63 | 42 |  |  | 
4 | CCCCCCOc1ccc(C=C2C(=O)NC(=S)NC2=O)cc1 [Compound 15] | 52 | 14 |  |  | 
5 | OCc1cccc(/N=C/c2cccc(O)c2O)c1 [Compound 57] | 61 | 20 |  |  | 
6 | CN(C)c1ccc(/C=C2\C(=O)N(c3ccc([N+](=O)[O-])cc3)N=C2N2CCOCC2)cc1 [Compound 42] | 51 | 138 |  |  | 
7 | C=CCN1C(=O)/C(=C/c2c3ccccc3cc3ccccc23)SC1=S [Compound 109] | 60 | 67 |  |  | 
8 | Cc1ccc(/N=C/c2cc(Br)cc(Br)c2O)c(C)c1 [Compound 54] | 54 | 30 |  |  | 
9 | COc1ccc(/C=N/c2ccc(Nc3ccccc3)cc2)c2ccccc12 [Compound 55] | 55 | 40 |  |  | 
10 | Cc1c(C(=O)/C=C/c2cccs2)c2cc(O)ccc2n1C [Compound 76] | 48 | 35 |  |  | 
11 | Cc1c(C(=O)/C=C/c2ccccc2)c2cc(O)ccc2n1C [Compound 75] | 39 | 103 |  |  | 
12 | O=C1S/C(=C/c2ccc(-c3ccc([N+](=O)[O-])cc3Cl)o2)C(=O)N1c1ccccc1 [Compound 27] | 48 | 6 |  |  | 
13 | CN(C)c1ccc(/C=C2\SC(=S)N(C3CCS(=O)(=O)C3)C2=O)cc1 (stereo not shown) [Compound 110] | 36 | 94 |  |  | 
14 | Cc1ccc(/N=C/c2cccc(O)c2O)cc1C [Compound 56] | 59 | 27 |  |  | 
15 | O=C1C(=Cc2ccc(-c3ccc(Br)cc3)o2)C(=O)c2ccccc21 [Compound 38] | 38 | 17 |  |  | 
16 | S=C(c1ccc(-c2cc(Cl)ccc2Cl)o1)N1CCCCC1 [Compound 35] | 56 | 44 |  |  | 
17 | O=C1NC(=O)C(=Cc2ccc(-c3cc(Cl)ccc3Cl)o2)C(=O)N1 [Compound 1] | 46 | 19 |  |  | 
18 | Cc1cc([N+](=O)[O-])ccc1/N=C/c1ccc[nH]1 [Compound 70] | 57 | 151 |  |  | 
19 | C=CCN1C(=O)NC(=O)/C(=C\c2ccccc2)C1=O [Compound 2] | 66 | 50 |  |  | 
20 | CC(C)(C)c1ccc(O)c(/N=C/C=C/c2cccc([N+](=O)[O-])c2)c1 [Compound 59] | 61 | 26 |  |  | 

Row | Compound | activity at 3 µM (HIV-1) [%] | remaining activity at 1 µM (POSH) [%] | remaining activity at 1 µM (c-cbl) [%] | Selectivity (% A* in 1 μM) E2 (E2 protein) [%] | remaining activity at 1 µM (POSH; [1]) [%]
21 | COc1ccc(N2C(=O)NC(=O)/C(=C\C=C\c3ccccc3)C2=O)cc1 [Compound 8] | 67 | 9 |  |  | 
22 | O=C1C=CC(=O)N1c1ccc(OC(F)(F)C(F)F)c(N2C(=O)C=CC2=O)c1 [Compound 20] | 60 | 33 |  |  | 
23 | Cc1ccc2nsnc2c1/N=C/c1c(O)ccc2ccccc12 [Compound 53] | 64 | 12 |  |  | 
24 | O=C1C=CC(=O)N1c1ccccc1Cl [Compound 18] | 41 | 24 |  |  | 
25 | O=C1CC(NNc2ccccc2)C(=O)N1c1cccc(Cl)c1 (stereo not shown) [Compound 22] |  |  | 64 | 91 | 26
26 | Oc1c(Br)cc(Cl)cc1/C=N/c1ccccc1Br [Compound 58] |  |  | 115 | 108 | 40
27 | Oc1c(Cl)cc(Cl)cc1/C=N/c1ccc(-c2nc3ccccc3[nH]2)cc1 [Compound 63] |  |  | 95 | 109 | 30
28 | O=c1/c(=C/c2ccc(N3CCOCC3)cc2)sc2nc3ccccc3n12 [Compound 32] | 67 | 66 |  |  | 
29 | O=[N+]([O-])c1ccc2c(c1)Cc1cc(/N=C/c3ccc(Br)cc3)ccc1-2 [Compound 67] |  |  | 92 | 98 | 103
30 | Cc1ccc(/C=N/c2ccc(C(N)=O)cc2)o1 [Compound 73] |  |  | 90 | 64 | 16
31 | COc1cc(/C=C2\SC(=O)NC2=O)ccc1OCc1ccc(Cl)cc1Cl [Compound 34] |  |  | 135 | 93 | 23
32 | COc1ccc(NC(=O)c2cc3cccc(N)c3cc2O)cc1 [Compound 114] | 46 | 31 |  |  | 
33 | Oc1ccc(/N=C/c2cccs2)cc1-c1nc2ccccc2s1 [Compound 71] |  |  | 84 | 86 | 9
34 | N/N=C\c1ccc(-c2cccs2)s1 [Compound 37] |  |  | 93 | 97 | 41
35 | CCCCOc1ccc(NC(=S)N2CCn3c4c(c(=O)c5cc(C)ccc53)CCC42)cc1 (stereo not shown) [Compound 81] | 63 | 3 |  |  | 
36 | Cc1cc(/N=C/c2c(O)ccc3ccccc23)no1 [Compound 111] |  |  | 98 | 49 | 17
37 | O=C1/C(=C\c2cccc([N+](=O)[O-])c2)Sc2ccccc21 [Compound 52] |  |  | 124 | 63 | 80
38 | O=C(O)c1ccc(-c2ccc(/C=c3\sc4nc5ccccc5n4c3=O)o2)cc1 [Compound 28] | 54 | 26 |  |  | 
39 | O=C1C=CC(=O)N1c1ccc(Cl)cc1 [Compound 19] | 52 | 39 |  |  | 
40 | O=C1N=C(c2ccccc2)S/C1=C/c1ccc2ccccc2c1 [Compound 41] |  |  | 141 | 82 | 17
